Data published in patent US20070249620A1, “Urea Derivative” (priority 2004, published 2007).

Key:
[1] = target: T1, mouse DGAT1 (Mus musculus, UniProt Q9Z2A7); assay: DGAT1 inhibitory effect test (microsome fraction, [14C]-oleoyl-CoA, triglyceride radioactivity by TLC); format: biochemical; details: 0.5 h; concentration of the test compound 0.1 μg/ml; mouse DGAT1 microsomes, 23° C., 30 minutes; read-out: Inhibitory ratio
T1 construct: made in house; host or cells: insect cells (High Five, Sf9, Sf21, etc.), baculovirus expression system (Invitrogen)
T1 sequence (Q9Z2A7 1-498): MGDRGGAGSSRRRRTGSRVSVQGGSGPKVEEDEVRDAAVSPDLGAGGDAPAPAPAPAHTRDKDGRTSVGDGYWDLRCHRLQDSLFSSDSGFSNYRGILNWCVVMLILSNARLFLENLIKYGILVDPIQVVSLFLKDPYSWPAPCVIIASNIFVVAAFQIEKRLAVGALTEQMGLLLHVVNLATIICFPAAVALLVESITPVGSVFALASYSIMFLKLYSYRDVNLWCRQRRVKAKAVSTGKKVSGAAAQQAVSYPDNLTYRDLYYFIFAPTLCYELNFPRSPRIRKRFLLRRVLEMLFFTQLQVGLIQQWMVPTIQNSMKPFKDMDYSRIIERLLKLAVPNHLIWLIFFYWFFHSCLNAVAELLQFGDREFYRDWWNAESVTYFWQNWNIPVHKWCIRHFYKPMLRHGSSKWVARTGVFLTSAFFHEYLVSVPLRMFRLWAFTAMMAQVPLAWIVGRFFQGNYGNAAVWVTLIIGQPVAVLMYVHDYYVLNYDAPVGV
Procedure, shortened: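 Baculovirus-expressed mouse DGAT1 insect-cell microsomes (10 μg) were incubated 30 min at 23 °C, pH 8.0, with 0.5 mM 1,2-dioleoyl-sn-glycerol, 30 μM [14C]-oleoyl-CoA and 0.5% Triton X-100. [14C]-triglyceride was quantified after heptane extraction and TLC. Percent inhibition was taken against vehicle control, with 0-min background subtracted.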

CCOc1ccc(Cl)cc1NC(=O)Nc1ccc(N2CCN(C(=O)Nc3ccc(C)cc3Cl)CC2)cc1 [Example 107, 4-{4-[3-(5-chloro-2-ethoxy-phenyl)-ureido]-phenyl}-piperazine-1-carboxylic acid (2-chloro-4-methyl-phenyl)-amide]
inhibition at 0.1 µg/mL [1]: ≥ 50% | melting point: 124 to 126 °C

COc1ccc(NC(=O)N2CCN(c3ccc(NC(=O)Nc4cc(Cl)ccc4OC)cc3)CC2)c(C)c1 [Example 109, 4-{4-[3-(5-chloro-2-methoxy-phenyl)-ureido]-phenyl}-piperazine-1-carboxylic acid (4-methoxy-2-methyl-phenyl)-amide]
inhibition at 0.1 µg/mL [1]: ≥ 50% | melting point: 225 to 226 °C

CCOc1ccccc1NC(=O)Nc1ccc(N2CCN(C(=O)Nc3ccc(OC)cc3C)CC2)cc1 [Example 110, 4-{4-[3-(2-ethoxy-phenyl)-ureido]-phenyl}-piperazine-1-carboxylic acid (4-methoxy-2-methyl-phenyl)-amide]
inhibition at 0.1 µg/mL [1]: ≥ 50% | melting point: 202 to 203 °C

CCOc1ccc(C)cc1NC(=O)Nc1ccc(N2CCN(C(=O)Nc3ccc(OC)cc3C)CC2)cc1 [Example 111, 4-{4-[3-(2-ethoxy-5-methyl-phenyl)-ureido]-phenyl}-piperazine-1-carboxylic acid (4-methoxy-2-methyl-phenyl)-amide]
inhibition at 0.1 µg/mL [1]: ≥ 50% | melting point: 202 to 204 °C

CCOc1ccc(F)cc1NC(=O)Nc1ccc(N2CCN(C(=O)Nc3ccc(OC)cc3C)CC2)cc1 [Example 112, 4-{4-[3-(2-ethoxy-5-fluoro-phenyl)-ureido]-phenyl}-piperazine-1-carboxylic acid (4-methoxy-2-methyl-phenyl)-amide]
inhibition at 0.1 µg/mL [1]: ≥ 50% | melting point: 186 to 189 °C

COc1ccc(NC(=O)N2CCN(c3ccc(NC(=O)Nc4cc(F)ccc4OC)cc3)CC2)c(C)c1 [Example 113, 4-{4-[3-(5-fluoro-2-methoxy-phenyl)-ureido]-phenyl}-piperazine-1-carboxylic acid (4-methoxy-2-methyl-phenyl)-amide]
inhibition at 0.1 µg/mL [1]: ≥ 50% | melting point: 216 to 218 °C

COc1ccc(Cl)cc1NC(=O)Nc1ccc(N2CCN(C(=O)Nc3c(C)cccc3C)CC2)cc1 [Example 114, 4-{4-[3-(5-chloro-2-methoxy-phenyl)-ureido]-phenyl}-piperazine-1-carboxylic acid (2,6-dimethyl-phenyl)-amide]
inhibition at 0.1 µg/mL [1]: ≥ 50% | melting point: 216 to 218 °C

COc1ccc(Cl)cc1NC(=O)Nc1ccc(N2CCN(C(=O)Nc3c(F)cccc3C(F)(F)F)CC2)cc1 [Example 115, 4-{4-[3-(5-chloro-2-methoxy-phenyl)-ureido]-phenyl}-piperazine-1-carboxylic acid (2-fluoro-6-trifluoromethyl-phenyl)-amide]
inhibition at 0.1 µg/mL [1]: ≥ 50% | melting point: 156 to 158 °C

CCOc1ccccc1NC(=O)Nc1ccc(N2CCN(C(=O)Nc3c(C)cccc3C)CC2)cc1 [Example 116, 4-{4-[3-(2-ethoxy-phenyl)-ureido]-phenyl}-piperazine-1-carboxylic acid (2,6-dimethyl-phenyl)-amide]
inhibition at 0.1 µg/mL [1]: ≥ 50% | melting point: 204 to 205 °C

CCOc1ccccc1NC(=O)Nc1ccc(N2CCN(C(=O)Nc3c(F)cccc3C(F)(F)F)CC2)cc1 [Example 117, 4-{4-[3-(2-ethoxy-phenyl)-ureido]-phenyl}-piperazine-1-carboxylic acid (2-fluoro-6-trifluoromethyl-phenyl)-amide]
inhibition at 0.1 µg/mL [1]: ≥ 50% | melting point: 139 to 141 °C

CCOc1ccc(C)cc1NC(=O)Nc1ccc(N2CCN(C(=O)Nc3c(C)cccc3C)CC2)cc1 [Example 118, 4-{4-[3-(2-ethoxy-5-methyl-phenyl)-ureido]-phenyl}-piperazine-1-carboxylic acid (2,6-dimethyl-phenyl)-amide]
inhibition at 0.1 µg/mL [1]: ≥ 50% | melting point: 222 to 225 °C

CCOc1ccc(C)cc1NC(=O)Nc1ccc(N2CCN(C(=O)Nc3c(F)cccc3C(F)(F)F)CC2)cc1 [Example 119, 4-{4-[3-(2-ethoxy-5-methyl-phenyl)-ureido]-phenyl}-piperazine-1-carboxylic acid (2-fluoro-6-trifluoromethyl-phenyl)-amide]
inhibition at 0.1 µg/mL [1]: ≥ 50% | melting point: 144 to 146 °C

CCOc1ccc(C)cc1NC(=O)Nc1ccc(N2CCN(C(=O)Nc3ccc(C)cc3Cl)CC2)cc1 [Example 120, 4-{4-[3-(2-ethoxy-5-methyl-phenyl)-ureido]-phenyl}-piperazine-1-carboxylic acid (2-chloro-4-methyl-phenyl)-amide]
inhibition at 0.1 µg/mL [1]: ≥ 50% | melting point: 119 to 122 °C

CCOc1ccccc1NC(=O)Nc1ccc(N2CCN(C(=O)Nc3ccc(C)cc3Cl)CC2)cc1 [Example 121, 4-{4-[3-(2-ethoxy-phenyl)-ureido]-phenyl}-piperazine-1-carboxylic acid (2-chloro-4-methyl-phenyl)-amide]
inhibition at 0.1 µg/mL [1]: ≥ 50% | melting point: 179 to 181 °C

CCOc1ccc(F)cc1NC(=O)Nc1ccc(N2CCN(C(=O)Nc3ccc(C)cc3Cl)CC2)cc1 [Example 122, 4-{4-[3-(2-ethoxy-5-fluoro-phenyl)-ureido]-phenyl}-piperazine-1-carboxylic acid (2-chloro-4-methyl-phenyl)-amide]
inhibition at 0.1 µg/mL [1]: ≥ 50% | melting point: 155 to 157 °C

COc1ccc(F)cc1NC(=O)Nc1ccc(N2CCN(C(=O)Nc3ccc(C)cc3Cl)CC2)cc1 [Example 123, 4-{4-[3-(5-fluoro-2-methoxy-phenyl)-ureido]-phenyl}-piperazine-1-carboxylic acid (2-chloro-4-methyl-phenyl)-amide]
inhibition at 0.1 µg/mL [1]: ≥ 50% | melting point: 233 to 235 °C

COc1ccccc1NC(=O)Nc1ccc(N2CCN(C(=O)Nc3c(C)cccc3Cl)CC2)cc1 [Example 124, 4-{4-[3-(2-methoxy-phenyl)-ureido]-phenyl}-piperazine-1-carboxylic acid (2-chloro-6-methyl-phenyl)-amide]
inhibition at 0.1 µg/mL [1]: ≥ 50% | melting point: 245 to 247 °C

Cc1cccc(Cl)c1NC(=O)N1CCN(c2ccc(NC(=O)Nc3ccccc3F)cc2)CC1 [Example 125, 4-{4-[3-(2-fluoro-phenyl)-ureido]-phenyl}-piperazine-1-carboxylic acid (2-chloro-6-methyl-phenyl)-amide]
inhibition at 0.1 µg/mL [1]: ≥ 50% | melting point: 232 to 234 °C

Cc1cccc(Cl)c1NC(=O)N1CCN(c2ccc(NC(=O)Nc3ccccc3Cl)cc2)CC1 [Example 126, 4-{4-[3-(2-chloro-phenyl)-ureido]-phenyl}-piperazine-1-carboxylic acid (2-chloro-6-methyl-phenyl)-amide]
inhibition at 0.1 µg/mL [1]: ≥ 50% | melting point: > 260 °C (dec.)

Cc1ccccc1NC(=O)Nc1ccc(N2CCN(C(=O)Nc3c(C)cccc3Cl)CC2)cc1 [Example 127, 4-[4-(3-o-tolyl-ureido)-phenyl]-piperazine-1-carboxylic acid (2-chloro-6-methyl-phenyl)-amide]
inhibition at 0.1 µg/mL [1]: ≥ 50% | melting point: > 260 °C (dec.)

CCc1ccccc1NC(=O)Nc1ccc(N2CCN(C(=O)Nc3c(C)cccc3Cl)CC2)cc1 [Example 128, 4-{4-[3-(2-ethyl-phenyl)-ureido]-phenyl}-piperazine-1-carboxylic acid (2-chloro-6-methyl-phenyl)-amide]
inhibition at 0.1 µg/mL [1]: ≥ 50% | melting point: 217 to 219 °C

COc1ccc(C)cc1NC(=O)Nc1ccc(N2CCN(C(=O)Nc3ccc(Br)cc3Cl)CC2)cc1 [Example 129, 4-{4-[3-(2-methoxy-5-methyl-phenyl)-ureido]-phenyl}-piperazine-1-carboxylic acid (4-bromo-2-chloro-phenyl)-amide]
inhibition at 0.1 µg/mL [1]: ≥ 50% | melting point: 140 to 142 °C

CCCc1ccccc1NC(=O)Nc1ccc(N2CCN(C(=O)Nc3c(C)cccc3Cl)CC2)cc1 [Example 130, 4-{4-[3-(2-propyl-phenyl)-ureido]-phenyl}-piperazine-1-carboxylic acid (2-chloro-6-methyl-phenyl)-amide]
inhibition at 0.1 µg/mL [1]: ≥ 50% | melting point: 216 to 217 °C

Cc1ccc(C)c(NC(=O)Nc2ccc(N3CCN(C(=O)Nc4c(C)cccc4Cl)CC3)cc2)c1 [Example 131, 4-{4-[3-(2,5-dimethyl-phenyl)-ureido]-phenyl}-piperazine-1-carboxylic acid (2-chloro-6-methyl-phenyl)-amide]
inhibition at 0.1 µg/mL [1]: ≥ 50% | melting point: 251 to 253 °C

COc1ccc(Cl)cc1NC(=O)Nc1ccc(N2CCN(C(=O)Nc3c(Cl)cccc3Cl)CC2)cc1 [Example 132, 4-{4-[3-(5-chloro-2-methoxy-phenyl)-ureido]-phenyl}-piperazine-1-carboxylic acid (2,6-dichloro-phenyl)-amide]
inhibition at 0.1 µg/mL [1]: ≥ 50% | melting point: 189 to 190 °C

CCOc1ccccc1NC(=O)Nc1ccc(N2CCN(C(=O)Nc3c(Cl)cccc3Cl)CC2)cc1 [Example 133, 4-{4-[3-(2-ethoxy-phenyl)-ureido]-phenyl}-piperazine-1-carboxylic acid (2,6-dichloro-phenyl)-amide]
inhibition at 0.1 µg/mL [1]: ≥ 50% | melting point: 164 to 166 °C
